Converted amounts (≈) assume the structure as drawn. Read-outs that look alike come from different tables or passages of the source. Each block holds one compound with its values, some of them ahead of it.
What was measured:
[1] = tested on: Fonsecaea pedrosoi (CFP 00791); assay: NIH Clinical Collection screening for antifungal activity (growth inhibition, OD 530 nm); type: cell-based; details: 10 µM, CFP00791 Fonsecaea pedrosoi isolate, 72–96 h; for inhibition at 10 µM: read-out: % Growth Inhibition
Description: These substances are part of the NIH Roadmap Molecular Libraries Screening Centers Network screening library, a collection of chemically diverse substances in Phase I-III clinical trials. Each substance was initially diluted to 1 mM in DMSO and stored at −20 °C until use. […] The final DMSO concentration corresponded to 0.5% v/v. The inoculum was prepared according to the protocol for filamentous fungi proposed by the European Committee on Antimicrobial Susceptibility Testing—EUCAST, with minor modifications. […] After growth, conidia were suspended in 3 mL of sterile distilled water with 0.1% Tween 20, vortexed, and the concentration adjusted to the 0.5 McFarland scale. The suspension was then diluted 1:10 in order to obtain a final working inoculum at 2–5 × 10^5 CFU/mL. Next, 100 µL of the inoculum was added to each well and the plates incubated at 35 °C for 72–96 h. Negative and positive controls consisted of culture medium alone and drug-free culture medium with the fungal inoculum previously described, respectively. Plates were read using a microplate reader (Epoch, Biotek, Wenusky, VT, USA) with a 530 nm filter to obtain the optical density. All plates were also visually read to confirm the equipment data. A calculation was performed to obtain the percentage of inhibition of fungal growth, according to the formula: (1 − (OD1/OD2)) × 100, where OD1 = optical density of the fungus in the presence of the drug; and OD2 = optical density of the growth control drug-free well.

[2] = tested on: Exophiala heteromorpha (ATCC 28180); assay: Minimum fungicidal concentration determination; type: cell-based; details: E. heteromorpha
Description: (§1) Minimum fungicidal concentration (MFC) was determined in triplicate by transferring a 5 μL aliquot from each well without fungal growth of the microdilution plates used for MIC determination, as described above, onto 2% glucose Sabouraud agar (Sigma Chemical Corporation). The MFC was determined as the lowest drug concentration without fungal growth on Sabouraud agar after five days of incubation at 35 °C. When the MFC/MIC ratio of a hit drug was 1 or 2, the substance was considered fungicidal against the pathogen. If this ratio was greater than 2, the hit drug was considered to be fungistatic.

[3] = tested on: Fonsecaea monophora (CFP 00911); assay: Minimum fungicidal concentration determination; type: cell-based; details: F. monophora
Description: as §1

[4] = tested on: Exophiala dermatitidis (ATCC 28869); assay: Minimum fungicidal concentration determination; type: cell-based; details: E. dermatitidis
Description: as §1

[5] = tested on: Fonsecaea nubica (CFP 00912); assay: Minimum fungicidal concentration determination; type: cell-based; details: F. nubica
Description: as §1

[6] = tested on: Fonsecaea pedrosoi (CFP 00791); assay: Minimum fungicidal concentration determination; type: cell-based; details: F. pedrosoi
Description: as §1

[7] = tested on: Phialophora verrucosa (CFP 00937); assay: Minimum fungicidal concentration determination; type: cell-based; details: P. verrucosa
Description: as §1

[8] = tested on: Rhinocladiela similis (CFP 00790); assay: Minimum fungicidal concentration determination; type: cell-based; details: R. similis
Description: as §1

[9] = tested on: Cladophialophora carrionii (CFP 00910); assay: Minimum fungicidal concentration determination; type: cell-based; details: C. carrionii
Description: The MFC was determined as the lowest drug concentration without fungal growth on Sabouraud agar after five days of incubation at 35 °C.

[10] = tested on: Exophiala heteromorpha (ATCC 28180); assay: MIC determination (EUCAST, minor modifications); type: cell-based; details: E. heteromorpha
Description: (§2) Minimum inhibitory concentrations (MICs) were determined using the method proposed by the European Committee on Antimicrobial Susceptibility Testing (EUCAST), with minor modifications. Hit drugs were serially diluted (80 μM to 0.15625 μM) in RPMI 1640 (twice concentrated, pH 7; supplemented with 2% glucose) buffered with MOPS in 96-well plates. The inoculums of all strains were prepared following the EUCAST protocol. Plates were incubated at 35 °C for 72–96 h. The MIC of the NCC substances was determined as the lowest concentration capable of inhibiting 100% of fungal growth when compared to the growth control well. MIC values were determined in duplicate.

[11] = tested on: Cladophialophora carrionii (CFP 00910); assay: MIC determination (EUCAST, minor modifications); type: cell-based; details: C. carrionii
Description: as §2

[12] = tested on: Fonsecaea monophora (CFP 00911); assay: MIC determination (EUCAST, minor modifications); type: cell-based; details: F. monophora
Description: as §2

[13] = tested on: Exophiala dermatitidis (ATCC 28869); assay: MIC determination (EUCAST, minor modifications); type: cell-based; details: E. dermatitidis
Description: as §2

[14] = tested on: Fonsecaea nubica (CFP 00912); assay: MIC determination (EUCAST, minor modifications); type: cell-based; details: F. nubica; for MIC: 100% growth inhibition, read-out: MIC
Description: as §2

[15] = tested on: Fonsecaea pedrosoi (CFP 00791); assay: MIC determination (EUCAST, minor modifications); type: cell-based; details: F. pedrosoi
Description: as §2

[16] = tested on: Phialophora verrucosa (CFP 00937); assay: MIC determination (EUCAST, minor modifications); type: cell-based; details: P. verrucosa
Description: as §2

[17] = tested on: Rhinocladiela similis (CFP 00790); assay: MIC determination (EUCAST, minor modifications); type: cell-based; details: R. similis
Description: as §2

[18] = tested on: different species that cause CBM; assay: MIC determination of hit drugs, stated over the panel of CBM agents; type: cell-based
From the text: In this study, eight fungal isolates obtained from the Fiocruz Pathogenic Fungi Collection (CFP) and the American Type Culture Collection (ATCC®) were used. Fonsecaea pedrosoi (CFP 00791) was used throughout the study. This species is one of the main CBM agents worldwide. Cladophialophora carrionii (CFP 00910), Phialophora verrucosa (CFP 00937), Fonsecaea monophora (CFP 00911), Fonsecaea nubica (CFP 00912), Rhinocladiela similis (CFP 00790), Exophiala heteromorpha (ATCC® 28180), and Exophiala dermatitidis (ATCC® 28869) were used to determine the minimum inhibitory concentration (MIC) and in synergism assays. Strains were maintained on potato dextrose agar (PDA) (Sigma Chemical Corporation, St. Louis, MO, USA). Seven-day cultures incubated at 30 °C were used in the assays.
as §2

[19] = tested on: Fonsecaea pedrosoi (CFP 00791); details: F. pedrosoi; PDA; 7 days, 37 °C; albendazole at ½ MIC
Description: (§3) At the end of the seven days of incubation at 37 °C, the plates were read visually. The aspect of the colonies supplemented with albendazole were compared to those of the positive melanin and inhibition melanin controls, to determine whether the color of the albendazole-supplemented cultures resembled the positive DHN-melanin or the melanin inhibition control. Pictures of the colonies were captured using a Canon EOS Rebel T7+ digital camera.

[20] = tested on: Exophiala heteromorpha (ATCC 28180); details: E. heteromorpha; PDA; 7 days, 37 °C; albendazole at ½ MIC
Description: as §3

[21] = tested on: Cladophialophora carrionii (CFP 00910); details: C. carrionii; PDA; 7 days, 37 °C; albendazole at ½ MIC
Description: as §3

[22] = different species that cause CBM, highest concentration tested 80 µM, read-out: MIC

Compound: Nc1nc(=O)[nH]cc1F [5-Fluorocytosine]
inhibition at 10 µM [1]: 68%

Compound: CCCCCCNC(=O)n1cc(F)c(=O)[nH]c1=O [Carmofur]
inhibition at 10 µM [1]: 100%

MIC ([10]; Exophiala heteromorpha, ATCC28180, 100% growth inhibition, read-out: MIC): 10 µM (≈ 2.01 µg/mL) | MIC ([11]; Cladophialophora carrionii, 100% growth inhibition, read-out: MIC): 5 µM (≈ 1.01 µg/mL) | MIC ([12]; Fonsecaea monophora, 100% growth inhibition, read-out: MIC): 5 µM (≈ 1.01 µg/mL) | MIC ([13]; Exophiala dermatitidis, ATCC28869, 100% growth inhibition, read-out: MIC): 10 µM (≈ 2.01 µg/mL) | MIC ([14]; Fonsecaea nubica): 5 µM (≈ 1.01 µg/mL) | MIC ([15]; Fonsecaea pedrosoi, 100% growth inhibition, read-out: MIC): 5 µM (≈ 1.01 µg/mL) | MIC ([16]; Phialophora verrucosa, 100% growth inhibition, read-out: MIC): 5 µM (≈ 1.01 µg/mL) | MIC ([17]; 100% growth inhibition, read-out: MIC): 10 µM (≈ 2.01 µg/mL)
Compound: c1ccc2[nH]c(-c3cscn3)nc2c1 [Thiabendazole]
MFC:MIC Ratio [2]: 8 | MFC ([2]; Exophiala heteromorpha, ATCC28180, read-out: MFC): 80 µM (≈ 16.1 µg/mL) | MFC:MIC Ratio [3]: 1 | fungicidal or fungistatic (MFC/MIC ratio) [3]: fungicidal (When the MFC/MIC ratio of a hit drug was 1 or 2, the substance was considered fungicidal) | MFC ([3]; Fonsecaea monophora, read-out: MFC): 5 µM (≈ 1.01 µg/mL) | MFC:MIC Ratio [4]: 8 | MFC ([4]; Exophiala dermatitidis, ATCC28869, read-out: MFC): 80 µM (≈ 16.1 µg/mL) | MFC:MIC Ratio [5]: 1 | fungicidal or fungistatic (MFC/MIC ratio) [5]: fungicidal (When the MFC/MIC ratio of a hit drug was 1 or 2, the substance was considered fungicidal) | MFC ([5]; Fonsecaea nubica, read-out: MFC): 5 µM (≈ 1.01 µg/mL) | MFC:MIC Ratio [6]: 1 | fungicidal or fungistatic (MFC/MIC ratio) [6]: fungicidal (When the MFC/MIC ratio of a hit drug was 1 or 2, the substance was considered fungicidal) | MFC ([6]; Fonsecaea pedrosoi, read-out: MFC): 5 µM (≈ 1.01 µg/mL) | MFC:MIC Ratio [7]: 4 | MFC ([7]; Phialophora verrucosa, read-out: MFC): 20 µM (≈ 4.03 µg/mL) | MFC:MIC Ratio [8]: 4 | MFC ([8]; read-out: MFC): 40 µM (≈ 8.05 µg/mL) | MFC:MIC Ratio [9]: 1 | fungicidal or fungistatic (MFC/MIC ratio) [9]: fungicidal (When the MFC/MIC ratio of a hit drug was 1 or 2, the substance was considered fungicidal) | MFC ([9]; Cladophialophora carrionii, read-out: MFC): 5 µM (≈ 1.01 µg/mL) | inhibition at 10 µM [1]: 82% | Selectivity Index (SI) ([10]; CC50 Vero 24 h / MIC): 49.75 | Selectivity Index (SI) ([11]; CC50 Vero 24 h / MIC): 99.50 | Selectivity Index (SI) ([12]; CC50 Vero 24 h / MIC): 99.50 | Selectivity Index (SI) ([13]; CC50 Vero 24 h / MIC): 49.75 | Selectivity Index (SI) ([14]; CC50 Vero 24 h / MIC): 99.50 | Selectivity Index (SI) ([15]; CC50 Vero 24 h / MIC): 99.50 | Selectivity Index (SI) ([16]; CC50 Vero 24 h / MIC): 99.50 | Selectivity Index (SI) ([17]; CC50 Vero 24 h / MIC): 49.75

MIC [18, 22]: > 80 µM
Compound: CN1C(=O)CC[C@H]1c1cccnc1 [Cotinine (nicotine), Cotinine]
inhibition at 10 µM [1]: 71%

MIC [18, 22]: 10 to 40 µM
Compound: CN[C@H]1CC[C@@H](c2ccc(Cl)c(Cl)c2)c2ccccc21 [Sertraline]

Compound: Clc1ccc(COC(Cn2ccnc2)c2ccc(Cl)cc2Cl)c(Cl)c1 (centres unmarked) [Miconazole nitrate]
inhibition at 10 µM [1]: 99%

Compound: Clc1ccc(COC(Cn2ccnc2)c2ccc(Cl)cc2Cl)cc1 (centres unmarked) [Econazole nitrate]
inhibition at 10 µM [1]: 94%

Compound: CN1CCCCC1CCN1c2ccccc2Sc2ccc([S+](C)[O-])cc21 (centres unmarked) [Mesoridazine (Serentil), Mesoridazine]
inhibition at 10 µM [1]: 86%

Compound: C=CC[C@@H]1/C=C(\C)C[C@H](C)C[C@H](OC)[C@H]2O[C@@](O)(C(=O)C(=O)N3CCCC[C@H]3C(=O)O[C@H](/C(C)=C/[C@@H]3CC[C@@H](O)[C@H](OC)C3)[C@H](C)[C@@H](O)CC1=O)[C@H](C)C[C@@H]2OC [Tacrolimus]
inhibition at 10 µM [1]: 89%

MIC ([18]; different species that cause CBM, highest concentration tested 80 µM): above 80 µM
Compound: C[C@H](N[C@@H](CCc1ccccc1)C(=O)O)C(=O)N1CCC[C@H]1C(=O)O [Enalaprilat]
% Growth Inhibition [1]: 67%

Compound: Cc1cccc2sc3nncn3c12 [tricyclazole]
melanin production [19]: changes the color of colonies from dark green, gray or black (due to melanin) to reddish brown | melanin production [20]: changes the color of colonies from dark green, gray or black (due to melanin) to reddish brown | melanin production [21]: changes the color of colonies from dark green, gray or black (due to melanin) to reddish brown

Compound: Medroxyprogesterone
% Growth Inhibition [1]: 91%

Compound: O=c1[nH]cc(F)c(=O)[nH]1 [5-Fluorouracil]
inhibition at 10 µM [1]: 85%

Compound: O=C(NCC1CCCCN1)c1cc(OCC(F)(F)F)ccc1OCC(F)(F)F (centres unmarked) [Flecainide Acetate]
inhibition at 10 µM [1]: 95%

MIC [18, 22]: > 80 µM
Compound: COCCCOc1ccnc(C[S+]([O-])c2nc3ccccc3[nH]2)c1C (centres unmarked) [Rabeprazole]
inhibition at 10 µM [1]: 61%

Compound: CN(C)CC/C=C1/c2ccccc2COc2ccc(CC(=O)O)cc21 [Olopatadine (Patanol), Olopatadine]
inhibition at 10 µM [1]: 85%

Compound: CCC(C)n1ncn(-c2ccc(N3CCN(c4ccc(OCC5COC(Cn6cncn6)(c6ccc(Cl)cc6Cl)O5)cc4)CC3)cc2)c1=O (centres unmarked) [itraconazole]
inhibition at 10 µM [1]: 100%

MIC [14]: 0.3125 µM (≈ 0.0769 µg/mL) | MIC ([18]; CBM agents except the Fonsecaea nubica isolate, read-out: MIC): > 80 µM
Compound: O=c1[nH]c(=O)n([C@H]2C[C@H](O)[C@@H](CO)O2)cc1F [Floxuridine]
inhibition at 10 µM [1]: 86%

MIC [18, 22]: > 80 µM
Compound: CC(=O)NC[C@H]1CN(c2ccc(N3CCOCC3)c(F)c2)C(=O)O1 [Linezolid]
inhibition at 10 µM [1]: 87%

MIC [18, 22]: > 80 µM
Compound: OCCN1C[C@H](O)[C@@H](O)[C@H](O)[C@H]1CO [Miglitol]
inhibition at 10 µM [1]: 90%

Source: article PMC10381309 (Journal of Fungi, 2023)
